The source of these data is ChEMBL document CHEMBL1201862, “PubChem BioAssay data set” (2004).

Holding throughout (experiment): NCI-60 cell line screen, 48 h
Experiment [1] deals with SNB-19.
The test system of experiment [2] is EKVX.
Experiment [3] relates to ACHN.
Experiment [4] relates to DMS-114.
Experiment [5] deals with SF-539.
Experiment [6] has as its system SN12C.
Experiment [7] concerns HCT-15.
Experiment [8] concerns SW-620.
Experiment [9] has as its system OVCAR-8.
Experiment [10] relates to HOP-62.
Experiment [11] deals with NCI-H23.
Experiment [12] has as its system HCT-116.
In experiment [13] the test system is SK-MEL-28.
For experiment [14], the system named is HOP-92.
In experiment [15] the test system is NCI-H522.
Experiment [16] has as its system SF-268.
Experiment [17] has as its system SNB-75.
The test system of experiment [18] is M14.

The structures appear in SMILES notation.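 Briefly, cells in 96-well plates were exposed to five compound concentrations for 48 h, and endpoints were estimated by linear interpolation. GI50 marks 50% less growth.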 The source made the active and inactive calls. No stated cut-off is given here; in the data, active = GI50 up to about 1.1 µM and inactive = higher.

For the molecule `CCOc1ccc(/N=N/c2ccc3oc(=O)c(/C(C)=N\NC(=O)CC(=O)Nc4ccc(Cl)cc4)cc3c2)cc1`, the GI50 in experiment [1] is 27.3 µM (inactive); in experiment [2], 8.36 µM (inactive); in experiment [3], 22.4 µM (inactive); in [4], 15.9 µM (inactive); in experiment [5], 17.5 µM (inactive); in experiment [6], 26.1 µM (inactive). Moreover, the GI50 is 6.25 µM in experiment [7]; 17.8 µM (inactive) in [8]; 16.1 µM (inactive) in [9]; 17.6 µM (inactive) in [10]; 18.7 µM (inactive) in experiment [11]; 16.4 µM (inactive) in experiment [12]. The GI50 in experiment [13] was 36.1 µM (inactive); in experiment [14] it was 25.2 µM (inactive); in experiment [15] it was 18.6 µM (inactive); in [16], 19.6 µM (inactive).

On to `CCOC(=O)c1ccn2c(c1)c(C#N)c1nc3ccccc3nc12`, for which the GI50 in [1] is 61 µM (inactive); in [2], 70.6 µM (inactive); in experiment [3], 55.5 µM (inactive); in experiment [4], 52.2 µM (inactive); in [5], > 100 µM (inactive); in [17], 13.3 µM (inactive). Also, the GI50 in experiment [6] was 83.8 µM (inactive); in experiment [7], 41.6 µM; in experiment [8], 50 µM (inactive); in experiment [9], 32.1 µM (inactive); in [10], > 100 µM (inactive); in experiment [11] it was 37.2 µM (inactive). Besides, the GI50 in [12] is 46.8 µM (inactive); in [13], > 100 µM (inactive); in experiment [15], 45.3 µM (inactive); in [18] it was > 100 µM (inactive); in experiment [16], > 100 µM (inactive).

Take `CC(=O)NNc1nc(C)c(C(=O)NNC(=O)C(=O)Nc2c(C)cccc2C(C)C)s1`: the GI50 in [1] was > 100 µM (inactive); in experiment [2] it was > 100 µM (inactive); in [3], 60.1 µM (inactive); in experiment [4], 86.7 µM (inactive); in experiment [5] it was 95.9 µM (inactive); in experiment [6] it was > 100 µM (inactive). Besides, the GI50 in experiment [7] was 60.3 µM; in experiment [8], 55.3 µM (inactive); in experiment [9], 94.2 µM (inactive); in [10], > 100 µM (inactive); in [11], > 100 µM (inactive); in experiment [12], 84.1 µM (inactive). Besides, the GI50 in experiment [13] was > 100 µM (inactive); in experiment [14], 78 µM (inactive); in experiment [15], 35.4 µM (inactive); in [18], > 100 µM (inactive); in experiment [16], 59.6 µM (inactive).

For the molecule `CCOC(=O)Oc1ccc2[nH]c3c(C)cc(N)c(C)c3c2c1`, the GI50 in experiment [1] was > 100 µM (inactive); in experiment [2] it was > 100 µM (inactive); in [3] it was > 100 µM (inactive); in experiment [4], 46.7 µM (inactive); in [5] it was > 100 µM (inactive); in [17], > 100 µM (inactive). Moreover, the GI50 in [6] is > 100 µM (inactive); in experiment [7], greater than 100 µM; in experiment [8], > 100 µM (inactive); in [9], > 100 µM (inactive); in experiment [10], > 100 µM (inactive); in [11], > 100 µM (inactive). Besides, the GI50 in experiment [12] is > 100 µM (inactive); in experiment [13], > 100 µM (inactive); in experiment [15] it was > 100 µM (inactive); in [18], 98.4 µM (inactive); in experiment [16] it was > 100 µM (inactive).

As to `O=C(Nc1cccs1)c1c(O)[nH]c(=S)[nH]c1=O`, the GI50 in experiment [1] is > 100 µM (inactive); in experiment [3], > 100 µM (inactive); in [4] it was > 100 µM (inactive); in [5], > 100 µM (inactive); in [6], > 100 µM (inactive); in [7], greater than 100 µM. Further, the GI50 in experiment [8], in experiment [9], in [10], in experiment [11], in experiment [13] and in experiment [14] was > 100 µM (inactive) each time. Further, the GI50 in experiment [15], in [18] and in experiment [16] was > 100 µM (inactive) each time.
